Data reported in ChEMBL document CHEMBL1909046, “DrugMatrix in vitro pharmacology data”.

Columns and labels:
[1] = target: Mitogen-activated protein kinase 1 (Homo sapiens, UniProt P28482); assay: DRUGMATRIX: Protein Serine/Threonine Kinase, ERK2 enzyme inhibition (substrate: Myelin Basic Protein); design: species or system Escherichia coli; details: Not Active = under 50% inhibition at 10 µM
[2] = DRUGMATRIX: Purinergic P2X radioligand binding (ligand: [3H] alpha, beta-Methylene-ATP); format: cell membranes, Oryctolagus cuniculus, New Zealand albino, Urinary bladder, Membrane; details: Not Active = under 50% inhibition at 10 µM
[3] = DRUGMATRIX: Glutamate, AMPA radioligand binding (ligand: [3H] AMPA); format: cell membranes, Rattus norvegicus, Wistar, Cerebral cortex, Membrane; details: Not Active = under 50% inhibition at 10 µM
[4] = DRUGMATRIX: Potassium Channel [KATP] radioligand binding (ligand: [3H] Glyburide); format: cell membranes, Membrane; details: hit-t15; Not Active = under 50% inhibition at 10 µM
[5] = target: Kappa-type opioid receptor (Homo sapiens, UniProt P41145); assay: DRUGMATRIX: Opiate kappa (OP2, KOP) radioligand binding (ligand: [3H] Diprenorphine); format: cell membranes, HEK293, Membrane; details: hek293; Not Active = under 50% inhibition at 10 µM
[6] = target: T1, Alpha-1D adrenergic receptor (Homo sapiens, UniProt P25100); format: cell membranes, HEK293, Membrane; details: for Ki: read-out: Ki; for all read-outs here: in other assays of this panel Not Active means under 50% inhibition at 10 µM
T1 sequence (P25100 whole entry): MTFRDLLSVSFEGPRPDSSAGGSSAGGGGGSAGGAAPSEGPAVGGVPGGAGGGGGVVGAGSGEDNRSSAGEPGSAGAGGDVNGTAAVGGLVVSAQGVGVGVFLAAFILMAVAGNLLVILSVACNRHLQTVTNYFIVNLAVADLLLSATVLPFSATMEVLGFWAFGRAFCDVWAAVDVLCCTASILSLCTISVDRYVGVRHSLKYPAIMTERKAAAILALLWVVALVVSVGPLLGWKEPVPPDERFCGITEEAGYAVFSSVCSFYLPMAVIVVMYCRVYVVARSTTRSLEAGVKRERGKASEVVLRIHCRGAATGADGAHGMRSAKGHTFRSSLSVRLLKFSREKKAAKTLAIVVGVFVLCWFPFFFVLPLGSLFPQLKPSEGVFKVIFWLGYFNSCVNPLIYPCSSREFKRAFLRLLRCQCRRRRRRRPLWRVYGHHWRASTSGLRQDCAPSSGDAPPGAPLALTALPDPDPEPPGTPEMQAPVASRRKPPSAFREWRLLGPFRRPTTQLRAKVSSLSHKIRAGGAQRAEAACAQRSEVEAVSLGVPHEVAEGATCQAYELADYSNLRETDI

Sequence of Mitogen-activated protein kinase 1 (P28482 whole entry): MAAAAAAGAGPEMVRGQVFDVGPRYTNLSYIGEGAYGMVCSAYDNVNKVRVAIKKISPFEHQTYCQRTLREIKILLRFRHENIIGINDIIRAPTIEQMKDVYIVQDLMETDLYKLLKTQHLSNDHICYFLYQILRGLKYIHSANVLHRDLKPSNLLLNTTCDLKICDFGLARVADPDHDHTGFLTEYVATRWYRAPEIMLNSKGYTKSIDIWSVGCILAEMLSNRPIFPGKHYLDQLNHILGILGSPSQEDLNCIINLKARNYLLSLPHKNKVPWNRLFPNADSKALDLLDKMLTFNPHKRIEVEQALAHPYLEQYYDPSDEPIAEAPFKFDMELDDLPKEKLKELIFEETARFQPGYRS
Sequence of Kappa-type opioid receptor (P41145 whole entry): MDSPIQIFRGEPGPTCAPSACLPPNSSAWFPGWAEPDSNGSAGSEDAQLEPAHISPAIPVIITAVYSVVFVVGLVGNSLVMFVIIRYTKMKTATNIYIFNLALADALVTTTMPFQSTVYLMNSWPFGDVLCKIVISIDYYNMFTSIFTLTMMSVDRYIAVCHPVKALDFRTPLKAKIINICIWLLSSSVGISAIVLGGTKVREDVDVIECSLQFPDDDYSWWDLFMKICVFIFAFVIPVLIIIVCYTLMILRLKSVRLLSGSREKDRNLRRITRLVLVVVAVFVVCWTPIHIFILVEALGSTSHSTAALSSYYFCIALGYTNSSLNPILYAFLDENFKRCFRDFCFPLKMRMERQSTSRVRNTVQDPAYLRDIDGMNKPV

| SMILES | IC50 [1] | IC50 [2] | Ki [2] | IC50 [3] | Ki [3] | IC50 [4] | Ki [4] | IC50 [5] | IC50 ([6]; hek293) | IC50 ([6]; read-out: IC50) | Ki [6] |
| --- | --- | --- | --- | --- | --- | --- | --- | --- | --- | --- | --- |
| O=C(O)CCc1nc(-c2ccccc2)c(-c2ccccc2)o1 [OXAPROZIN] | Not Active | Not Active | Not Active | Not Active | Not Active | Not Active | Not Active | Not Active | Not Active |  |  |
| NCC(CC(=O)O)c1ccc(Cl)cc1 (configuration not stated) [BACLOFEN] | Not Active | Not Active | Not Active | Not Active | Not Active | Not Active | Not Active | Not Active | Not Active |  |  |
| CC[C@H]1OC(=O)[C@H](C)[C@@H](O[C@H]2C[C@@](C)(OC)[C@@H](O)[C@H](C)O2)[C@H](C)[C@@H](O[C@@H]2O[C@H](C)C[C@H](N(C)C)[C@H]2O)[C@](C)(O)C[C@@H](C)C(=O)[C@H](C)[C@@H](O)[C@]1(C)O [ERYTHROMYCIN] | Not Active | Not Active | Not Active | Not Active | Not Active | Not Active | Not Active | Not Active | Not Active |  |  |
| COC(=O)C[C@](O)(CCC(C)(C)O)C(=O)O[C@@H]1C(OC)=C[C@]23CCCN2CCc2cc4c(cc2[C@H]13)OCO4 [HARRINGTONINE] | Not Active | Not Active | Not Active | Not Active | Not Active | Not Active | Not Active | Not Active | Not Active |  |  |
| C#C[C@]1(O)CC[C@H]2[C@@H]3CCC4=CC(=O)CC[C@@H]4[C@H]3CC[C@@]21C [NORETHINDRONE] | Not Active | Not Active | Not Active | Not Active | Not Active | Not Active | Not Active | Not Active | Not Active |  |  |
| O=C1CN(/N=C/c2ccc([N+](=O)[O-])o2)C(=O)N1 [NITROFURANTOIN] | Not Active | Not Active | Not Active | Not Active | Not Active | Not Active | Not Active | Not Active | Not Active |  |  |
| c1ccc2c(c1)Nc1ccccc1S2 [PHENOTHIAZINE] | Not Active | Not Active | Not Active | Not Active | Not Active | Not Active | Not Active | Not Active | Not Active |  |  |
| CC(CN1c2ccccc2Sc2ccccc21)N(C)C (configuration not stated) [PROMETHAZINE] | Not Active | Not Active | Not Active | Not Active | Not Active | Not Active | Not Active | Not Active |  | 183 nM | 90 nM |
| c1ccc(Cn2ccnc2)cc1 | Not Active | Not Active | Not Active | Not Active | Not Active | Not Active | Not Active | Not Active | Not Active |  |  |
| CC(C)Cn1cnc2c(N)nc3ccccc3c21 [IMIQUIMOD] | Not Active | Not Active | Not Active | Not Active | Not Active | Not Active | Not Active | Not Active |  | 2620 nM | 1290 nM |
| OC[C@H]1OC2C3[C@@H](CO)OC(O[C@H]4[C@H](O)[C@@H](O)[C@@H](O[C@H]5[C@H](O)[C@@H](O)[C@@H](O[C@H]6[C@H](O)[C@@H](O)[C@@H](O[C@H]7[C@H](O)[C@@H](O)[C@@H](O[C@H]8[C@H](O)[C@@H](O)[C@@H](O[C@H]9[C@H](O)[C@@H](O)C(OC1[C@H](O)[C@H]2O)O[C@@H]9CO)O[C@@H]8CO)O[C@@H]7CO)O[C@@H]6CO)O[C@@H]5CO)O[C@@H]4CO)[C@H](O)[C@H]3O | Not Active | Not Active | Not Active | Not Active | Not Active | Not Active | Not Active | Not Active | Not Active |  |  |
| COc1cc(/C=C/C(=O)O)ccc1O [FERULATE] | Not Active | Not Active | Not Active | Not Active | Not Active | Not Active | Not Active | Not Active | Not Active |  |  |
| CO[C@H]1O[C@@H]2O[C@@]3(C)CC[C@H]4[C@H](C)CC[C@@H]([C@H]1C)[C@@]24OO3 | Not Active | Not Active | Not Active | Not Active | Not Active | Not Active | Not Active | Not Active | Not Active |  |  |
| Oc1ncnc2[nH]ncc12 [ALLOPURINOL] | Not Active | Not Active | Not Active | Not Active | Not Active | Not Active | Not Active | Not Active | Not Active |  |  |
| NC(=O)CN1CCCC1=O | Not Active | Not Active | Not Active | Not Active | Not Active | Not Active | Not Active | Not Active | Not Active |  |  |
| Cc1c(N)nc([C@H](CC(N)=O)NC[C@H](N)C(N)=O)nc1C(=O)N[C@H](C(=O)N[C@H](C)[C@@H](O)[C@H](C)C(=O)N[C@H](C(=O)NCCc1nc(-c2nc(C(=O)NCCC[S+](C)C)cs2)cs1)[C@@H](C)O)[C@@H](O[C@@H]1O[C@@H](CO)[C@@H](O)[C@H](O)[C@@H]1O[C@H]1O[C@H](CO)[C@@H](O)[C@H](OC(N)=O)[C@@H]1O)c1c[nH]cn1.[Br-] [BLEOMYCIN A2] | Not Active | Not Active | Not Active | Not Active | Not Active | Not Active | Not Active | Not Active | Not Active |  |  |
| C[C@]12CC[C@@H](O)C[C@@H]1CC[C@@H]1[C@@H]2CC[C@]2(C)C(=O)CC[C@@H]12 [ANDROSTERONE] | Not Active | Not Active | Not Active | Not Active | Not Active | Not Active | Not Active | Not Active | Not Active |  |  |
| O=C(O)c1ccccc1 [BENZOIC ACID] | Not Active | Not Active | Not Active | Not Active | Not Active | Not Active | Not Active | Not Active | Not Active |  |  |
| CC(=O)Nc1ccc2c(c1)Cc1ccccc1-2 [2-ACETYLAMINOFLUORENE] | Not Active | Not Active | Not Active | Not Active | Not Active | Not Active | Not Active | Not Active | Not Active |  |  |
| C[C@H](C(=O)O)c1ccc2oc(-c3ccc(F)cc3)nc2c1 [FLUNOXAPROFEN] | Not Active | Not Active | Not Active | Not Active | Not Active | Not Active | Not Active | Not Active | Not Active |  |  |
| C[C@H]1C[C@H]2[C@@H]3CCC4=CC(=O)C=C[C@]4(C)[C@@]3(F)[C@@H](O)C[C@]2(C)[C@@]1(O)C(=O)CO [BETAMETHASONE] | Not Active | Not Active | Not Active | Not Active | Not Active | Not Active | Not Active | Not Active | Not Active |  |  |
| CN(CCOc1ccc(C[C@H](Nc2ccccc2C(=O)c2ccccc2)C(=O)O)cc1)c1ccccn1 | Not Active | Not Active | Not Active | Not Active | Not Active | Not Active | Not Active | Not Active | Not Active |  |  |
| NS(=O)(=O)c1cc(C(=O)O)c(NCc2ccco2)cc1Cl [FUROSEMIDE] | Not Active | Not Active | Not Active | Not Active | Not Active | Not Active | Not Active | Not Active | Not Active |  |  |
| CCN1CCN(c2cc3c(cc2F)c(=O)c(C(=O)O)cn3C2CC2)CC1 [ENROFLOXACIN] | Not Active | Not Active | Not Active | Not Active | Not Active | Not Active | Not Active | Not Active | Not Active |  |  |
| C[N+](C)(C)CCOP(=O)([O-])OC[C@H](O)CO | Not Active | Not Active | Not Active | Not Active | Not Active | Not Active | Not Active | Not Active | Not Active |  |  |
